The values that follow come from US7439343B2, “Aminoglycoside-polyamine displacers and methods of use in displacement chromatography” (Rensselaer Polytechnic Institute, priority 2005, dated 2008).

For test [1], the target named is horse cytochrome-C on Source 15S cation exchange resin. The test can be described thus: Batch displacement assay, cytochrome-C on Source 15S. It is filed as binding. The settings on record: input displacer concentration displacing 50% of bound protein; 50 mM phosphate, pH 6.0. An excerpt: (§1) A modified batch displacement assay was used to investigate displacer efficacy of the carbohydrate derivatives over a wide range of concentrations. The carbohydrate derivatives from hereon will be referred to as the displacer candidates unless otherwise specified. Different input concentrations of the displacer candidates were employed to determine the DC50 value, which is the input displacer concentration required to displace fifty percent of the initially bound protein. The lower the DC50 value the more efficacious is the displacer candidate.
Column 201 is the displacer candidate evaluated. Column 202 is DC50 values of horse cytochrome-C on HP Sepharose SP. Column 203 is the DC50 values of horse cytochrome-C on Source 15S cation exchange resin. The above approach was employed to determine the DC50 values of the displacer candidates for the displacement of horse cytochrome-C on HP Sepharose SP and Source 15S cation exchange resins at pH 6.0.
The influence of the stationary phase on displacer affinity was investigated using a second strong cation exchange resin, Source 15S.
(§2) The bulk stationary phase (HP Sepharose SP or Source 15S) was first washed once with de-ionized water and then three times with the buffer, (50 mM phosphate, pH 6.0) and allowed to equilibrate for 2 hours. After gravity-settling of the stationary phase, the supernatant was removed and 3.0 mL of the remaining stationary phase slurry was equilibrated with 36 ml containing 3 mg/ml of the protein (horse heart cytochrome-C or chicken egg lysozyme) in 50 mM phosphate buffer, pH 6.0, at 20° C.
(§3) The protein was equilibrated with the resin for five hours in order to attain complete equilibration during which, the stationary phase was allowed to gravity-settle. Upon settling, the supernatant was removed and the protein content in the supernatant was determined using absorbance detection at 280 or 405 nm using a plate reader. The mass of the protein adsorbed on the stationary phase was determined by mass balance.
(§4) For the screening experiments, 300 μL of different initial concentrations (ranging from 0.3 to 5 mM) of a displacer solution was added to 25 μL aliquots of the stationary phase slurry with bound protein. (note: a different displacer candidate and concentration were employed for each vial to enable parallel screening). The system was equilibrated for 5 h. After equilibrium was achieved, the supernatant was removed and the protein content was determined by absorbance detection at 280 or 405 nm using a plate reader.
(§5) The percent protein displaced, was calculated for each aliquot based on the protein mass balance and the data was plotted as a function of the initial displacer concentration. The resulting plots were then employed to determine the initial displacer concentration required to displace fifty percent of the adsorbed protein (i.e. the DC50).

Test [2] has as its target horse cytochrome-C on HP Sepharose SP. The test can be described thus: Batch displacement assay, cytochrome-C on HP Sepharose SP. Type of test: binding. Conditions: input displacer concentration displacing 50% of bound protein; 50 mM phosphate, pH 6.0.
From the text: as §1
Table 1 is of displacer candidates and their respective DC50 values of horse cytochrome-C on HP Sepharose SP and Source 15S cation exchange resins in accordance with the present invention. Column 201 is the displacer candidate evaluated. Column 202 is DC50 values of horse cytochrome-C on HP Sepharose SP. Column 203 is the DC50 values of horse cytochrome-C on Source 15S cation exchange resin. The above approach was employed to determine the DC50 values of the displacer candidates for the displacement of horse cytochrome-C on HP Sepharose SP and Source 15S cation exchange resins at pH 6.0.
as §2, §3, §4, §5

In a further test the test system is DNA. The test can be described thus: Ethidium bromide displacement assay (DNA binding). On the set-up: species or system calf. The settings on record: 96-well format. An excerpt: A method for condensing DNA comprising combining the DNA with at least one of the aforementioned derivatives of a carbohydrate compound wherein the DNA is bound to the carbohydrate compound is presented in accordance with the present invention. FIG. 3 depicts a graph of DNA binding efficacy of the displacer candidates in an embodiment of the present invention. The Y axis is % fluorescence decreased and the X axis is the carbohydrate derivative evaluated.
Referring to FIG. 3, an ethidium bromide displacement assay was employed to evaluate the DNA-binding affinity of carbohydrate derivatives in a 96-well format. Using this screen, the percent fluorescence decreased was used as a parameter to rank the DNA-binding efficacy of the various compounds.

Test [3] relates to chicken-egg lysozyme adsorbed on HP Sepharose SP. The test can be described thus: Batch displacement assay, lysozyme on HP Sepharose SP. The settings on record: displacer concentration 2.5 mM. It is filed as binding. Here is the method:
FIG. 2 depicts a graph comparing the % lysozyme and % cytochrome-C displaced on HP Sepharose SP in accordance with the present invention. The Y axis is % protein displaced. The X axi is the displacer candidate evaluated. The displacer candidate concentration is 2.5 mM in an embodiment of the present invention. In order to evaluate the displacer candidates with another protein, experiments were carried out with chicken-egg lysozyme adsorbed on HP Sepharose SP. Referring to FIG. 2, a comparison of the percent protein displaced for both lysozyme and cytochrome-C at displacer concentrations of 2.5 mM is shown. The data is arranged in increasing order of percent lysozyme displaced. […] Upon settling, the supernatant was removed and the protein content in the supernatant was determined using absorbance detection at 280 or 405 nm using a plate reader. The mass of the protein adsorbed on the stationary phase was determined by mass balance. […] After equilibrium was achieved, the supernatant was removed and the protein content was determined by absorbance detection at 280 or 405 nm using a plate reader. The percent protein displaced, was calculated for each aliquot based on the protein mass balance and the data was plotted as a function of the initial displacer concentration. […]

Take `NCCN` [Ethylenediamine, ethylenediamine, reference compound]: the DC50 is 17600 ± 2150 µM in test [1] and 20200 ± 2670 µM in test [2].

`NCCCNCCCCNCCCNC(=O)Nc1ncnc2c1ncn2C1CC(OC(=O)NCCCNCCCCNCCCN)C(COC(=O)NCCCNCCCCNCCCN)O1` (stereo not drawn) [compound 11]: the DC50 in test [1] amounted to 1100 ± 140 µM; in test [2], 2300 µM.

Consider `NCCCNCCCCNCCCN` [Spermine, spermine, reference compound], for which the values for the DC50 in test [1] and in test [2] were 4300 ± 640 µM and 4800 µM, respectively. Besides, the “% fluorescence decreased” value in the test on DNA is given as “relatively low efficacies”.

As for `NCCCNCCCCNCCCNC(=O)NCC1OC(OC2C(NC(=O)NCCCNCCCCNCCCN)CC(NC(=O)NCCCNCCCCNCCCN)C(OC3OC(CO)C(O)C(NC(=O)NCCCNCCCCNCCCN)C3O)C2O)C(O)C(O)C1O` (stereo not drawn) [23c, kanamycin A tetraspermine], in test [1], the DC50 was 900 µM. Moreover, in test [2], the DC50 turned out to be 1000 µM and the “DC50-Cytochrome C on HP Sepharose SP” value is on record as “sub-millimolar”.

Take `NCCNC(=O)NCC1OC(OC2C(NC(=O)NCCN)CC(NC(=O)NCCN)C(OC3OC(CO)C(O)C(NC(=O)NCCN)C3O)C2O)C(O)C(O)C1O` (stereo not drawn) [23a]: the DC50 was found to be 1700 ± 20 µM in test [1] and 2000 ± 150 µM in test [2].

As to `COC1OC(COC(=O)NCCCNCCCCNCCCN)C(O)C(O)C1NC(=O)NCCCNCCCCNCCCN` (stereo not drawn) [4b], in test [1], the DC50 stood at 800 µM and the “DC50-Cytochrome C on Source 15S” value is given as “sub-millimolar”. The same molecule had a DC50 in test [2] of 3600 µM.

Take `NCCCNCCCCNCCCNC(=O)NCC1OC(OC2C(NC(=O)NCCCNCCCCNCCCN)CC(NC(=O)NCCCNCCCCNCCCN)C(O)C2O)C(NC(=O)NCCCNCCCCNCCCN)C(O)C1O` (stereo not drawn) [17b, neamine tetraspermine]: the DC50 in test [1] worked out at 600 µM. Further, in test [2], the DC50 stood at 700 µM and the “DC50-Cytochrome C on HP Sepharose SP” value is “sub-millimolar”. Moreover, in test [3], the “percent protein displaced (lysozyme)” value is 52.8%.

In the case of `NCCNC(=O)NCC1OC(OC2C(CO)OC(OC3C(O)C(NC(=O)NCCN)CC(NC(=O)NCCN)C3OC3OC(CNC(=O)NCCN)C(O)C(O)C3NC(=O)NCCN)C2O)C(NC(=O)NCCN)C(O)C1O` (stereo not drawn) [14a], the DC50 in test [1] is 1300 ± 90 µM. For the same molecule, in test [2], the DC50 turned out to be 1600 µM and the “DC50-Cytochrome C on HP Sepharose SP” value was “highest affinity among the neomycin derivatives”.

With `NCCNC(=O)NCC1OC(OC2C(NC(=O)NCCN)CC(NC(=O)NCCN)C(O)C2O)C(NC(=O)NCCN)C(O)C1O` (stereo not drawn) [17a], the DC50 in test [1] came out at 2300 ± 40 µM; in test [2], 2100 µM.

Regarding `NC[C@H]1O[C@H](O[C@H]2[C@H](O)[C@@H](O)[C@H](N)C[C@@H]2N)[C@H](N)[C@@H](O)[C@@H]1O` [Neamine, neamine, reference compound], the DC50 was 4900 ± 1670 µM in test [1] and 5600 µM in test [2].

As to `NCCCNCCCCNCCCNC(=O)OCC1OC(n2cnc3c(N)ncnc32)CC1O` (stereo not drawn) [compound 7], the figures for the DC50 in test [1] and in test [2] were 6200 ± 460 µM and 11700 ± 100 µM, respectively.

On to `NCCCCNCCCN` [Spermidine, spermidine, reference compound], for which the DC50 in test [1] turned out to be 5800 ± 440 µM; in test [2], 7700 ± 1440 µM. Besides, the “% fluorescence decreased” value with DNA is “relatively low efficacies”.

With `COC1OC(CO)C(OC2OC(CNC(=O)NCCNCCN)C(O)C(O)C2NC(=O)NCCNCCN)C1O` (stereo not drawn) [20a], the DC50 in test [1] is 4800 ± 30 µM; in test [2] it was 9400 ± 2650 µM.

For the molecule `NCCCNCCCCNCCCNC(=O)NC1C(OCc2ccccc2)OC(COC(=O)NCCCNCCCCNCCCN)C(O)C1O` (stereo not drawn) [4d], the figures for the DC50 in test [1] and in test [2] were 800 µM and 2800 ± 200 µM, respectively. In test [1], the “DC50-Cytochrome C on Source 15S” value is given as “sub-millimolar”.

Take `NCC1OC(OC2C(CO)OC(OC3C(O)C(N)CC(N)C3OC3OC(CN)C(O)C(O)C3N)C2O)C(N)C(O)C1O` (stereo not drawn) [Neomycin, neomycin, reference compound]: the DC50 in test [1] was 1700 ± 20 µM; in test [2], 2800 µM. Also, the “% fluorescence decreased” value with DNA is reported as “relatively low efficacies”.

In the case of `NCCCNCCCCNCCCNC(=O)NC1C(O)OC(COC(=O)NCCCNCCCCNCCCN)C(O)C1O` (stereo not drawn) [4a], in test [1], the DC50 was found to be 900 µM and the “DC50-Cytochrome C on Source 15S” value is “sub-millimolar”. Moreover, the DC50 in test [2] was found to be 2800 µM.

Regarding `COC1OC(CO)C(OC2OC(CNC(=O)NCCCNCCCCNCCCN)C(O)C(O)C2NC(=O)NCCCNCCCCNCCCN)C1O` (stereo not drawn) [20b], in test [1], the DC50 is 800 ± 40 µM and the “DC50-Cytochrome C on Source 15S” value is “sub-millimolar”. Also, the DC50 in test [2] was determined as 1100 µM.

In the case of `NCCNC(=O)NCC1OC(OC2C(NC(=O)NCCN)CC(NC(=O)NCCN)C(OC3OC(CO)C(O)C(NC(=O)NCCN)C3O)C2O)C(N)C(O)C1O` (stereo not drawn) [compound 24], the DC50 in test [1] was determined as 1900 ± 60 µM; in test [2] it was 1900 ± 10 µM.

Turning to `NCCCNCCCCNCCCNC(=O)OC1CC(n2cnc3c(N)ncnc32)OC1CO` (stereo not drawn) [compound 9], the DC50 in test [1] worked out at 12900 ± 1460 µM; in test [2], 12300 ± 250 µM.

For the molecule `NCCNCCN` [Diethylenetriamine, diethylenetriamine, reference compound], the DC50 came to 14400 ± 3670 µM in test [1] and 10800 ± 190 µM in test [2].

Consider `NC[C@H]1O[C@H](O[C@H]2[C@H](O)[C@@H](O[C@H]3O[C@H](CO)[C@@H](O)[C@H](N)[C@H]3O)[C@H](N)C[C@@H]2N)[C@H](N)[C@@H](O)[C@@H]1O` [Bekanamycin, bekanamycin, reference compound], for which the values for the DC50 in test [1] and in test [2] were 3100 ± 2290 µM and 6200 ± 370 µM, respectively. Further, the “% fluorescence decreased” value in the test on DNA was “relatively low efficacies”.

As to `NCCCNCCCCNCCCNC(=O)NC1C(OCc2ccccc2)OC(COC(=O)NCCCNCCCCNCCCN)C(O)C1O` (stereo not drawn) [4c], in test [1], the DC50 came out at 800 µM and the “DC50-Cytochrome C on Source 15S” value is on record as “sub-millimolar”. In test [2], this molecule came in with a DC50 of 1300 µM.
